# Source: article PMC6950293, “A Rapid Extraction Method Combined with a Monoclonal Antibody-Based Immunoassay for the Detection of Amatoxins” (Toxins, 2019)
# Like-named read-outs stand apart in the source and are kept apart here. *1 amine or outer side, *2 acyl side, *3 side chain or, on linkers, in order; H or OH if unused. Where a SMILES comes first, the peptide text is derived from it. Bridges are numbered along the chain shown (N, C = ends). [ ]: non-standard residue; d: D form. ξ: configuration not given here. Adda = CO[C@@H](Cc1ccccc1)[C@@H](C)/C=C(C)/C=C/[C@H](N[*:1])[C@H](C)C(=O)[*:2]; Trp(2-yl) = O=C([C@H](Cc1c([*:3])[nH]c2ccccc12)N[*:1])[*:2]; dAsp(3S-Me) = C[C@H](C(=O)[*:3])[C@@H](N[*:1])C(=O)[*:2]; ξTrp(2-yl) = O=C(C(Cc1c([*:3])[nH]c2ccccc12)N[*:1])[*:2]; Leu(4R-OH,5-OH) = C[C@](O)(CO)C[C@H](N)C(=O)O; d(γGlu) = O=C(O)[C@@H](CCC(=O)[*:2])N[*:1]; X1 = CC(O)(CO)CC(N[*:1])C(=O)[*:2]; cisHyp = O=C(O)[C@@H]1C[C@H](O)CN1; ξAsp(3ξ-OH) = NC(C(=O)O)C(O)C(=O)O; Hyp = O=C(O)[CH]1C[CH](O)CN1; NMeDha = C=C(NC)C(=O)O
# What was measured:
# [1] = test system: mAb AMA9G3; test: indirect competitive ELISA (cELISA) with mAb AMA9G3; format: binding, mouse; conditions: for working range of detection (estimated as IC30 to IC80): AMA9G3
# [2] = test system: mAb AMA9C12; test: indirect competitive ELISA (cELISA) with mAb AMA9C12; format: binding, mouse
# [3] = test system: mice; conditions: mice ref 6; cited from earlier work
# [4] = test system: humans; conditions: humans ref 7; cited from earlier work
# [5] = test system: polyclonal antibody (pAb); conditions: Bühlmann Assay ref 15; cited from earlier work
# [6] = test system: mAb; conditions: another mAb, different coupling strategy ref 16; cited from earlier work
# [7] = test system: single chain variable fragment of a mAb; conditions: single chain variable fragment of a mAb ref 24; cited from earlier work
# [8] = mAb AMA9G3, coating antigen PERI-AMA-BSA, triplicate
# [9] = mAb AMA9G3, (IC50 α-AMA)/(IC50 test inhibitor) × 100
# [10] = mAb AMA9C12, coating antigen PERI-AMA-BSA, triplicate
# [11] = mAb AMA9C12, (IC50 α-AMA)/(IC50 test inhibitor) × 100
Compound,"IC50 [1, 8]","Cross Reactivity (%) [1, 9]","IC50 [2, 10]","Cross Reactivity (%) [2, 11]",Cross Reactivity (%) [5],also measured
NCc1cc(=O)[nH]o1 [muscimol],>1 mg/L,<0.3%,>1 mg/L,<0.3%,,
CC[C@H](C)[C@@H]1NC(=O)CNC(=O)[C@@H]2Cc3c([nH]c4cc(O)ccc34)[S@+]([O-])C[C@H](NC(=O)CNC1=O)C(=O)N[C@@H](CC(N)=O)C(=O)N1C[C@H](O)C[C@H]1C(=O)N[C@@H]([C@@H](C)[C@@H](O)CO)C(=O)N2 [α-amanitin],0.00157 ± 7e-05 mg/L,100%,0.00266 ± 0.00018 mg/L,100%,100%,"LD50 [3]: 0.1 mg/kg; dose severely toxic [4]: 0.3 mg/kg; working range of detection (estimated as IC30 to IC80) [1]: 0.0007 to 0.0031 mg/L; competitive inhibition / binding (in words) ([1]; mAb AMA9G3): competitively inhibited; IC50 ([1]; mAb AMA9G3, coating antigen PERI-AMA-BSA, triplicate, listed as α-AMA): ≈ 1.6 ng mL^−1; competitive inhibition / binding (in words) ([2]; mAb AMA9C12): competitively inhibited; IC50 [6]: 0.066 mg/L; IC50 [7]: 0.077 mg/L"
CN(C)CCc1c[nH]c2cccc(OP(=O)(O)O)c12 [psilocybin],>1 mg/L,<0.3%,>1 mg/L,<0.3%,,
"C[C@@H]1NC(=O)[C@H](C[C@@](C)(O)CO)NC(=O)[C@@H]2Cc3c([nH]c4ccccc34)SC[C@H](NC(=O)[C@@H]([C@H](C)O)NC1=O)C(=O)N1C[C@@H](O)C[C@H]1C(=O)N[C@@H](C)C(=O)N2 [phalloidin] (cyclo(A[dT]C[cisHyp]A[Trp(2-yl)][Leu(4R-OH,5-OH)]); thioether 3-6)",>1 mg/L,<0.3%,>1 mg/L,<0.3%,Not detected,
N[C@H](C(=O)O)c1cc(=O)[nH]o1 [ibotenic acid],>1 mg/L,<0.3%,>1 mg/L,<0.3%,,
CC1NC(=O)C2CC(O)CN2C(=O)C2CSc3[nH]c4ccccc4c3CC(NC1=O)C(=O)NC(CC(C)(O)CO)C(=O)NC(C(C)C)C(=O)NC(C(O)C(=O)O)C(=O)N2 (stereo not drawn) [phallacidin] (cyclo([ξAsp(3ξ-OH)]C[Hyp]A[ξTrp(2-yl)][X1]V); thioether 2-5; configuration not given here),>1 mg/L,<0.3%,>1 mg/L,<0.3%,Not detected,
C/C=C1/C(=O)N[C@@H](C(=O)O)[C@H](C)C(=O)N[C@@H](CCCNC(=N)N)C(=O)N[C@@H](/C=C/C(C)=C/[C@H](C)[C@H](Cc2ccccc2)OC)[C@H](C)C(=O)N[C@@H](C(=O)O)CCC(=O)N1C [nodularin],,,,,,Cross Reactivity (%) [1]: <0.3%; IC50 [1]: >1 mg/L; Cross Reactivity (%) [2]: <0.3%; IC50 [2]: >1 mg/L
C=C1C(=O)N[C@H](C)C(=O)N[C@@H](CC(C)C)C(=O)N[C@@H](C(=O)O)[C@H](C)C(=O)N[C@@H](CCCNC(=N)N)C(=O)N[C@@H](/C=C/C(C)=C/[C@H](C)[C@H](Cc2ccccc2)OC)[C@H](C)C(=O)N[C@@H](C(=O)O)CCC(=O)N1C [microcystin-LR] (R[Adda][d(γGlu)][NMeDha][dA]L[dAsp(3S-Me)]-OH; lactam N-7),,,,,,Cross Reactivity (%) [1]: <0.3%; IC50 [1]: >1 mg/L; Cross Reactivity (%) [2]: <0.3%; IC50 [2]: >1 mg/L
CC[C@H](C)[C@@H]1NC(=O)CNC(=O)[C@@H]2Cc3c([nH]c4cc(O)ccc34)[S+]([O-])C[C@H](NC(=O)CNC1=O)C(=O)N[C@@H](CC(=O)O)C(=O)N1CC(O)C[C@H]1C(=O)N[C@@H]([C@@H](C)[C@@H](O)CO)C(=O)N2 (stereo partly drawn) [β-amanitin],0.0242 ± 0.0062 mg/L,6.5%,>1 mg/L,<0.3%,0.1%,"working range of detection (estimated as IC30 to IC80) [1]: 0.0036 to 0.1291 mg/L; competitive inhibition / binding (in words) ([1]; mAb AMA9G3): competitively inhibited; IC50 ([1]; mAb AMA9G3, coating antigen PERI-AMA-BSA, triplicate, listed as β-AMA): 0.024 mg/L; competitive inhibition / binding (in words) ([2]; mAb AMA9C12): no reduction in signal response; IC50 [6]: 0.097 mg/L; IC50 [7]: 0.115 mg/L"
